Source: patent US20080280837A1, “Biologically Active Compounds with Anti-Angiogenic Properties” (priority 2004, published 2008)
Blank lines part the entries; values can stand above or below the compound they belong to.

Assays:
HUVEC tube formation = test: Matrigel tube formation assay; type: cell-based, human
Procedure: HUVEC (Clonetics) were plated in 96 well plates in EGM-2 media (Clonetics) at 2.5 to 3×10^4 cells per well. Cells of less than 6 passages were used in all studies. Wells were precoated with 50 μL growth factor containing Matrigel (Becton Dickinson). HUVEC were allowed to form tubes by incubation at 37° C. in 5% CO2 for 22 hrs. In test wells compound was added in the desired concentration. Photographic images of the wells ×4 magnification were used to determine size of the tubes, length of tubes and number of junctions using image analysis software.

[1] = test system: Human Umbilical Vein Endothelial Cells (HUVEC); test: Endothelial cell proliferation assay (MTS); type: cell-based; conditions: 48 hrs
Procedure: Human Umbilical Vein Endothelial Cells (HUVEC from Clonetics) were plated in 96 well plates at 1000 cell per well in EGM-2 medium (Clonetics). Cells were grown overnight at 37° C. in 5% CO2. Fresh EGM-2 medium containing compound at the desired concentration was added to the wells and the cells allowed to grow for a further 48 hrs. A MTS (Promega) colorimetric assay was performed after 48 hrs to determine cell growth according to the manufacturers instructions. Results are presented in terms of percentage growth.

[2] = molecular target: T1, Human SST5 somatostatin receptor (SSTR5) (Homo sapiens, UniProt P35346); test: Filter plate assay for SST5 receptor, displacement of [125I]SST-14; type: binding; conditions: Table 8
T1 construct: expressed in transfected cells; host or cells: HEK-293 EBNA
T1 sequence (P35346 whole entry): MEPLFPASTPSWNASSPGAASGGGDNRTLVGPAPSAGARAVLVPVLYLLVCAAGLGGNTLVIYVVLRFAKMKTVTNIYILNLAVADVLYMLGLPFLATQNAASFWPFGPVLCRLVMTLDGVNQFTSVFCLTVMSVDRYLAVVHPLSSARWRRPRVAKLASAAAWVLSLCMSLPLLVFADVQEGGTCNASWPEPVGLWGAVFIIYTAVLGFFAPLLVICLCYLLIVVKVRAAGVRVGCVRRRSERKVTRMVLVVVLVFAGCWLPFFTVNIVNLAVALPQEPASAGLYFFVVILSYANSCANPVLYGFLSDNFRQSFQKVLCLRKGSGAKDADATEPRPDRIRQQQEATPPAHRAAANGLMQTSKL
In short: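 HEK-293 EBNA membranes expressing human SST5 (5.5 μg) incubated 60 min at 25 °C with 4 nM [125I]SST-14 and compound in pH 7.5 Tris/EGTA/MgCl2/sucrose buffer. Bound radioactivity collected on PEI-coated glass fiber filters and counted; triplicate 1:5 dilution series from 125 μM, non-specific binding with excess cold ligand.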

SSTR-3 = molecular target: T2, SSTR-3 (Homo sapiens, UniProt P32745); test: Radioligand binding screen against somatostatin subtype SSTR-3; conditions: Table 8; shown where Ki could not be determined (NoModel); read-out: IC50 SSTR3 (in parentheses)
T2 construct: expressed in transfected cells
T2 sequence (P32745 whole entry): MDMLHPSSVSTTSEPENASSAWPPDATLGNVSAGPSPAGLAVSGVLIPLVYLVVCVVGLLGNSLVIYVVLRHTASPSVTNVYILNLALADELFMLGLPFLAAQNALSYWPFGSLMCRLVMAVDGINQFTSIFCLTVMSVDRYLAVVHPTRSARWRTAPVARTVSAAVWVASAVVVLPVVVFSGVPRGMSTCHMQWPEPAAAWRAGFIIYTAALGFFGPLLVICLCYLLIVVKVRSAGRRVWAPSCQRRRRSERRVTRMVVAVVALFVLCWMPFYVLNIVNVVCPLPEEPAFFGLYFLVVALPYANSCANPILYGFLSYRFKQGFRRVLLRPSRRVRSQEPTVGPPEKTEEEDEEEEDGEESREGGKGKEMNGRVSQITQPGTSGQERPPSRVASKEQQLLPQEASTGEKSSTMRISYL
Procedure: (§1) Receptor membrane preparations containing the desired cloned receptor (for example cloned human somatostatin receptor subtype 5, SSTR5) and radio-labeled ligand (for example 3-[^125I]iodotyrosyl^11 Somatostatin-14)) were diluted at the concentration required for testing and according to the specific parameters associated with the selected receptor-ligand combination, including receptor Bmax, ligand Kd and any other parameters necessary to optimize the experimental conditions. When tested for competition activity to the reference ligand, “compound 1” was mixed with membrane suspension and the radiolabeled reference ligand (with or without an excess of cold ligand to the receptor for determination of non-specific binding) and incubated at the temperature required by internal standard operating procedures. Following incubation, the binding reaction was stopped by the addition of ice-cold washing buffer and filtered on appropriate filters, which are then counted. Data analysis and curve-fitting was performed with XLfit (IDBS).
(§2) 10 mM solutions of test compounds in 100% DMSO were prepared. ˜160 μl was used for each dilution (20 μl/well in triplicate).
(§3) A 1.25 mM assay stock was prepared by making a 1:8 dilution of the 10 mM solution. (To 30 μL of the 10 mM solution was added 210 μL milli-Q H2O. A 1:5 dilution series in milli-Q H2O was then prepared.
(§4) In primary screening experiments compounds were tested in duplicate for a particular concentration.

SSTR-1 = molecular target: T3, SSTR-1 (Homo sapiens, UniProt P30872); test: Radioligand binding screen against somatostatin subtype SSTR-1; conditions: Table 8; read-out: Ki SSTR1
T3 construct: expressed in transfected cells
T3 sequence (P30872 whole entry, species assumed): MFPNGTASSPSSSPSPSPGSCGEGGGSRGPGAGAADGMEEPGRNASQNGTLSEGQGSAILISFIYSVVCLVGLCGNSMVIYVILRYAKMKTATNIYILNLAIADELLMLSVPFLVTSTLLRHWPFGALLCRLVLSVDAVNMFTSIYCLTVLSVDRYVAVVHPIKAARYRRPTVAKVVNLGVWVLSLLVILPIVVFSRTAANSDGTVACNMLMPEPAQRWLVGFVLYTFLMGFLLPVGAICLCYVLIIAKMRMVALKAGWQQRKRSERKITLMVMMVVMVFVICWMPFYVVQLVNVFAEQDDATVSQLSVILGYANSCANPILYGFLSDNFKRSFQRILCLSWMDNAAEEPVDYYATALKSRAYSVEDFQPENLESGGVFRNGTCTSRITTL
Procedure: as §1, §2, §3, §4

SSTR-2 = molecular target: T4, SSTR-2 (Homo sapiens, UniProt P30874); test: Radioligand binding screen against somatostatin subtype SSTR-2; conditions: Table 8; read-out: Ki SSTR2
T4 construct: expressed in transfected cells
T4 sequence (P30874 whole entry): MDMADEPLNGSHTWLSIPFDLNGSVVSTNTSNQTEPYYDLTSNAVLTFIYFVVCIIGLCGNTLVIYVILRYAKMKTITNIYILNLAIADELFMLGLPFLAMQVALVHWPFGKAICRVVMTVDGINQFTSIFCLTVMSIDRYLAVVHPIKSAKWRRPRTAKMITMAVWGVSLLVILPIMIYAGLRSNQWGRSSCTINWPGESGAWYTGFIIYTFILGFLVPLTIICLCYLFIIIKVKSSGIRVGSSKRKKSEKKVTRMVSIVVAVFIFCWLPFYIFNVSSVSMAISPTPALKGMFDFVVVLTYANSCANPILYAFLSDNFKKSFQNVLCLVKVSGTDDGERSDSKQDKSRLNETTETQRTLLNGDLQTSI
Procedure: as §1, §2, §3, §4

SSTR-4 = molecular target: T5, SSTR-4 (Homo sapiens, UniProt P31391); test: Radioligand binding screen against somatostatin subtype SSTR-4 (SST4 assay); conditions: Table 8; read-out: Ki SSTR4
T5 construct: expressed in transfected cells
T5 sequence (P31391 whole entry): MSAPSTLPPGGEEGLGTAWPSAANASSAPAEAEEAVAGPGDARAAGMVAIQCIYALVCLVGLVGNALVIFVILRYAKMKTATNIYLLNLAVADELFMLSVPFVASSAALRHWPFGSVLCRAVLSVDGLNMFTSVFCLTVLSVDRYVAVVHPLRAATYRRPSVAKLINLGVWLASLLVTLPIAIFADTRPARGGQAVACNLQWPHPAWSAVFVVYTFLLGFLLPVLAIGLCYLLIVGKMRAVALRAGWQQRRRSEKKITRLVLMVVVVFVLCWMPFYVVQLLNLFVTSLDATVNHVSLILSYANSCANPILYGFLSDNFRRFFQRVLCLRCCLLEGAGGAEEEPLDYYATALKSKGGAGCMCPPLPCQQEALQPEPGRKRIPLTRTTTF
Procedure: as §1, §2, §3
Assays were performed in triplicate at each concentration within the 1:5 dilution series: 250 μM, 50 μM, 10 μM, […], 0.4 μM, 0.08 μM, 0.016 μM, 0.0032 μM, etc. (for SST4 assay) and 125 μM, 10 μM, 2 μM, 1 μM, 0.5 μM, etc (for SST5 assay).
as §4

in vitro = conditions: human, Caco-2
Procedure: The Caco-2 assay was performed according to the procedure described in the following cited article [Caco-2 Monolayers in Experimental and Theoretical Predictions of Drug Transport, Artursson P, Palm K, Luthman K., Adv. Drug Deliv. Rev., 2001, 46, 27-43].

[3] = test system: MV522 human NSCLC tumour xenograft; test: Nude mouse model of human MV522 non-small cell lung cancer tumours; type: in vivo, nude mice; conditions: group five: paclitaxel 16 mg/kg i.p. qdx5 alone
Procedure: Initial Maximum Tolerated Dose (MTD) studies were done in male nude mice to determine the appropriate intravenous dosing regimen for the MV522 human NSCLC tumour model. A range of doses between 0 and 50 mg/Kg for 28 days (qdx28) were tested. Mice were randomized into groups with 5 animals per group including vehicle control. Animals were weighed twice weekly starting on day one and observed daily for adverse reactions or toxicity due to the agent. MTD studies determined the selection of 20 mg/kg and 35 mg/kg for intravenous dosing once per day for 28 days in the MV522 human NSCLC tumour xenograft model.
Male nude mice (nu/nu) between 5 and 6 weeks of age weighing approximately 20 g were implanted subcutaneously (s.c) by trocar with fragments of MV522 human tumour carcinomas harvested from s.c growing tumours in host mice. MV-522 is a metastatic human lung adenocarcinoma line. When tumours reached approximately 72 mg in size animals were pair matched into treatment and control groups with 10 mice in each group. Each mouse was tagged and followed individually throughout the experiment.
“Compound 1” was administered i.v. in a saline vehicle from day one. Vehicle control group animals were administered saline i.v. There were nine treatment groups including the vehicle control group. […]
At the end of the treatment period the mice were weighed and sacrificed. Each tumour was excised and weighed and a mean actual tumour weight (mg) per group was calculated along with the mean actual volume (mm^3). […] Mean tumour regression was determined using the formula [1−(mean actual tumour weightFINAL/mean tumour weightDAY 1)×100%].

[4] = 22 hrs, 50% inhibition of tube formation

SMILES: COC1C(O)C(COCc2ccc3ccccc3c2)OC(OCc2ccc(Cl)cc2)C1NC(=O)C1CCCN(C(=N)N)C1 (mixture of isomers) [14 mixture]
EC50 (HUVEC tube formation; [4]): 155 µM

SMILES: COCC1OC(OCc2ccc(Cl)cc2)C(NC(=O)CCN)C(OCc2ccc3ccccc3c2)C1O (stereo not drawn) [3 alpha]
EC50 (HUVEC tube formation; [4]): 45 µM

SMILES: COCC1OC(OCc2ccc(Cl)cc2)C(NC(=O)CCN)C(OCc2ccc3ccccc3c2)C1O (stereo not drawn) [3 beta]
EC50 (HUVEC tube formation; [4]): 90 µM

SMILES: COCC1OC(OCc2ccc3ccccc3c2)C(NC(=O)CCN)C(OCc2ccc(Cl)cc2)C1O (stereo not drawn) [7 alpha]
EC50 (HUVEC tube formation; [4]): 50 µM

SMILES: COCC1OC(OCc2ccc3ccccc3c2)C(NC(=O)CCN)C(OCc2ccc(Cl)cc2)C1O (stereo not drawn) [7 beta]
EC50 (HUVEC tube formation; [4]): 95 µM

SMILES: COCC1OC(OCc2ccc3ccccc3c2)C(NC(=O)CCN)C(OCc2ccc3ccccc3c2)C1O (stereo not drawn) [16 alpha]
EC50 (HUVEC tube formation; [4]): 55 µM

IC50 ([2]; shown where Ki could not be determined (NoModel), read-out: IC50 SSTR5 (in parentheses)): 0.0011 µM
IC50 (SSTR-3): 0.0008 µM
Ki (SSTR-1): > 10 µM
Ki (SSTR-2): 0.49 µM
Ki (SSTR-4): 0.463 µM
SMILES: CS[C@@H]1O[C@H](COCc2ccc(Cl)cc2)[C@@H](O)[C@@H](OCc2ccc3ccccc3c2)[C@H]1NC(=O)CCN [Compound 9]
Percent cell growth at 125 µM [1]: -86%
Percent cell growth at 250 µM [1]: -78%
EC50 (HUVEC tube formation; Homo sapiens, 22 h): 50 µM

Ki [2]: 0.22 µM
IC50 (SSTR-3): 0.228 µM
Ki (SSTR-1): > 10 µM
Ki (SSTR-2): 0.726 µM
SMILES: CS[C@@H]1O[C@H](COCc2ccc3ccccc3c2)[C@@H](O)[C@@H](OCc2ccc3ccccc3c2)[C@H]1NC(=O)CCN [Compound 10]
Percent cell growth at 125 µM [1]: -85%
Percent cell growth at 250 µM [1]: -63%
EC50 (HUVEC tube formation; Homo sapiens, 22 h): 125 µM

Papp (in vitro): 0.813 ×10⁻⁶ cm/s
SMILES: OC[C@@H](O)[C@@H](O)[C@H](O)[C@H](O)CO [mannitol, reference compound]

SMILES: CC(=O)O[C@H]1C(=O)[C@@]2(C)[C@H]([C@H](OC(=O)c3ccccc3)[C@]3(O)C[C@H](OC(=O)[C@H](O)[C@@H](NC(=O)c4ccccc4)c4ccccc4)C(C)=C1C3(C)C)[C@]1(OC(C)=O)CO[C@@H]1C[C@@H]2O [paclitaxel, reference compound]
Tumour growth inhibition (TGI) [3]: 42.1%
